Measurements: the supplement of paper PMC10307832

Experiments:
Test in all cases: relative viability (nuclei count vs DMSO), 5 days (fraction); higher = more cells survive
[1] = compound: CC1=C(C(=NN1)C)CC2=C(C3=C(S2)N(C(=O)N(C3=O)C)CC(C)C)C(=O)N4C[C@@H](CO4)O + Nc1ncn([C@H]2C[C@H](O)[C@@H](CO)O2)c(=O)n1 [Decitabine] (partner 2 µM)
Summary of the method: (§1)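 Cells from lung cancer lines were seeded into 1536-well plates and, one day later, dosed by pin tool. Treatments were either a single drug or a fixed dose of an anchor drug with five library-drug doses (not always all listed) in √10 steps. After 5 days, nuclei were stained in a one-step fixation (final 0.05% Triton X-100, 1% formaldehyde, 1 ug/ml Hoechst) and counted on 4× images, and relative viability is the treated-to-vehicle nuclei ratio, as the median of duplicate plates.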

IDH-C35 + OSI-027 = compound: Cc1ccccc1C(C(=O)NC1CCCCC1)N(C(=O)Cn1ccnc1C)c1cccc(F)c1 [IDH-C35] + COc1cccc2cc(-c3nc([C@H]4CC[C@H](C(=O)O)CC4)n4ncnc(N)c34)[nH]c12 [OSI-027] (partner 0.5 µM)
Summary of the method: as §1

[2] = compound: CC1=C(C(=NN1)C)CC2=C(C3=C(S2)N(C(=O)N(C3=O)C)CC(C)C)C(=O)N4C[C@@H](CO4)O + C[C@@H](Oc1cc(-c2cnn(C3CCNCC3)c2)cnc1N)c1c(Cl)ccc(F)c1Cl [Crizotinib] (partner 1 µM)
Summary of the method: as §1

[3] = compound: CC1=C(C(=NN1)C)CC2=C(C3=C(S2)N(C(=O)N(C3=O)C)CC(C)C)C(=O)N4C[C@@H](CO4)O + COc1cccc2cc(-c3nc([C@H]4CC[C@H](C(=O)O)CC4)n4ncnc(N)c34)[nH]c12 [OSI-027] (partner 0.5 µM)
Summary of the method: as §1

| Cell Line | relative viability ([1]; first compound 0.0025 µM) | relative viability ([1]; first compound 0.007906 µM) | relative viability ([1]; first compound 0.025 µM) | relative viability ([1]; first compound 0.07906 µM) | relative viability ([1]; first compound 0.25 µM) | relative viability (IDH-C35 + OSI-027; first compound 0.08 µM) | relative viability (IDH-C35 + OSI-027; first compound 0.253 µM) | relative viability (IDH-C35 + OSI-027; first compound 0.8 µM) | relative viability (IDH-C35 + OSI-027; first compound 2.53 µM) | relative viability (IDH-C35 + OSI-027; first compound 8 µM) | relative viability ([2]; first compound 0.0025 µM) | relative viability ([2]; first compound 0.007906 µM) | relative viability ([2]; first compound 0.025 µM) | relative viability ([2]; first compound 0.07906 µM) | relative viability ([2]; first compound 0.25 µM) | relative viability ([3]; first compound 0.0025 µM) | relative viability ([3]; first compound 0.007906 µM) | relative viability ([3]; first compound 0.025 µM) | relative viability ([3]; first compound 0.07906 µM) | relative viability ([3]; first compound 0.25 µM) |
| --- | --- | --- | --- | --- | --- | --- | --- | --- | --- | --- | --- | --- | --- | --- | --- | --- | --- | --- | --- | --- |
| NCI-H838 | 0.447 | 0.489 | 0.43 | 0.455 | 0.444 | 0.406 | 0.402 | 0.369 | 0.383 | 0.398 | 0.869 | 1.02 | 0.747 | 0.809 | 0.885 | 0.396 | 0.451 | 0.409 | 0.384 | 0.387 |
| NCI-H1755 | 0.699 | 0.811 | 0.742 | 0.646 | 0.696 | 0.754 | 0.64 | 0.707 | 0.68 | 0.706 | 0.876 | 0.952 | 0.941 | 0.877 | 0.967 | 0.767 | 0.743 | 0.684 | 0.702 | 0.704 |
| HCC-78 | 0.658 | 0.774 | 0.644 | 0.636 | 0.631 | 0.349 | 0.362 | 0.633 | 0.388 | 0.332 | 0.444 | 0.316 | 0.342 | 0.371 | 0.322 | 0.388 | 0.38 | 0.343 | 0.357 | 0.374 |
| IA-LM | – | – | – | – | – | – | – | – | – | – | 0.924 | 0.743 | 0.838 | 0.885 | 1.03 | – | – | – | – | – |
| NCI-H322M | 0.63 | 0.736 | 0.698 | 0.659 | 0.707 | 0.585 | 0.566 | 0.628 | 0.549 | 0.511 | 1.03 | 1.03 | 0.758 | 0.927 | 0.998 | 0.529 | 0.539 | 0.483 | 0.64 | 0.5 |
| NCI-H3122 | 0.393 | 0.454 | 0.47 | 0.448 | 0.389 | 1.03 | 1.04 | 0.929 | 0.917 | 0.948 | 0.281 | 0.26 | 0.276 | 0.259 | 0.299 | 0.912 | 0.765 | 0.927 | 1.04 | 0.989 |
| COR-L23 | 0.439 | 0.41 | 0.406 | 0.304 | 0.381 | 0.843 | 0.696 | 0.861 | 0.829 | 0.731 | 0.679 | 0.56 | 0.445 | 0.403 | 0.386 | 0.876 | 0.761 | 0.68 | 0.678 | 0.793 |
| NCI-H2087 | 0.315 | 0.28 | 0.274 | 0.295 | 0.248 | 0.59 | 0.518 | 0.537 | – | 0.532 | 0.822 | 0.804 | 0.927 | 0.923 | 0.937 | 0.72 | 0.506 | 0.517 | 0.564 | 0.54 |
| LC-2-ad | 0.776 | 0.8 | 0.877 | 0.8 | 0.871 | 0.9 | 0.908 | 0.806 | – | 0.899 | 0.486 | 0.451 | 0.411 | 0.454 | 0.638 | 0.952 | 0.782 | 0.973 | 0.934 | 0.821 |
| NCI-H1915 | 0.279 | 0.265 | 0.242 | 0.258 | 0.265 | 0.645 | 0.602 | 0.62 | 0.597 | 0.56 | 0.959 | 0.92 | 0.836 | 0.884 | 1.01 | 0.647 | 0.667 | 0.646 | 0.694 | 0.659 |
| NCI-H1793 | 0.295 | 0.517 | 0.471 | 0.449 | 0.524 | 0.225 | 0.256 | 0.279 | – | 0.262 | – | – | – | – | – | 0.298 | 0.289 | 0.262 | 0.242 | 0.231 |
| NCI-H522 | 0.658 | 0.655 | 0.472 | 0.498 | 0.599 | 0.784 | 0.658 | 0.74 | 0.669 | 0.674 | – | – | – | – | – | 0.804 | 0.624 | 0.608 | 0.45 | 0.546 |
| NCI-H1299 | – | – | – | – | – | – | – | – | – | – | 0.961 | 0.993 | 0.923 | 0.941 | 0.948 | – | – | – | – | – |
| NCI-H1648 | 0.582 | 0.529 | 0.5 | 0.302 | 0.461 | 0.289 | 0.234 | 0.274 | 0.275 | 0.257 | – | – | – | – | – | 0.238 | 0.247 | 0.303 | 0.253 | 0.267 |
| NCI-H2342 | 0.74 | 0.784 | 0.81 | 0.693 | 0.799 | 0.564 | 0.629 | 0.564 | 0.616 | 0.587 | – | – | – | – | – | 0.588 | 0.584 | 0.624 | 0.618 | 0.587 |
| SW 900 | 0.449 | 0.405 | 0.547 | 0.469 | 0.412 | 0.496 | 0.584 | 0.601 | 0.353 | 0.625 | – | – | – | – | – | 0.671 | 0.66 | 0.55 | 0.659 | 0.54 |
| NCI-H1395 | 0.801 | 0.68 | 0.707 | 0.763 | 0.694 | 0.66 | 0.701 | 0.709 | 0.618 | 0.579 | – | – | – | – | – | 0.658 | 0.603 | 0.409 | 0.578 | 0.58 |
| A549 | 0.237 | 0.284 | 0.252 | 0.232 | 0.343 | – | – | – | – | – | 0.763 | 0.805 | 0.663 | 0.858 | 1.07 | – | – | – | – | – |
| NCI-H1563 | – | – | – | – | – | 0.769 | 0.721 | 0.788 | 0.768 | 0.727 | 0.91 | 0.92 | 0.87 | 0.889 | 0.892 | 0.802 | 0.76 | 0.738 | 0.779 | 0.741 |
